Assay results published in patent publication US20090155209A1, “NOVEL MACROCYCLIC INHIBITORS OF HEPATITIS C VIRUS REPLICATION” (priority 2007, published 2009).

Test: Single ascending dose study, fasted and fed: safety and non-compartmental plasma PK
Assay type: in vivo, healthy volunteers (human)
Conditions: single dose, healthy volunteers
Description: A single ascending dose (SAD) study of the compound 100 was conducted in healthy volunteers. The compound 100 was administered as monotherapy both with and without food. The safety and pharmacokinetic profile of the single dose of the compound 100 was assessed.
Interim, blinded data were used for Pharmacokinetic (PK) study relating to food effects. With the exception of the 400 mg cohort, eight subjects were studied at each dose (single doses of 100, 200, or 800 mg of the sodium salt of the compound 100, which may be referred to herein as ITMN-191, administered in the fasting state). In the 400 mg cohort, ten subjects received single 400 mg doses of ITMN-191 under both fasted and fed conditions with a 5-day washout period between dosing. In the 100 mg cohort, subjects were sampled within 1 hour before dosing and at 0.5, 1, 1.5, 2, 2.5, 3, 4, 6, 8, 12, 18, 24, 32 and 48 hours after dosing. For subsequent cohorts, subjects were sampled within 1 hour before dosing and at 0.25, 0.5, 1, 1.5, 2, 2.5, 3, 4, 6, 8, 12, 18, 24, and 32 hours after dosing. Nominal (not actual) sampling times were used for the analysis. PK samples were analyzed using liquid chromatography-tandem mass spectrometry (LC/MS/MS with API 4000 mass spectrometer) following solid-phase extraction. The upper and lower limits of quantitation (ULOQ and LLOQ) are 100 and 0.01 ng/mL, respectively.
Pharmacokinetic parameter estimates were calculated using non-compartmental methods (implemented using Microsoft Excel®). Half-lives were determined by visual inspection of the log concentration-time plots to choose the terminal phase (minimum of three detectable observations). Using linear regression of the chosen terminal phase observations, elimination rate constants were calculated as the negative slope of the regression line and half-life as the natural log of 2 divided by the elimination rate constant.
Ten subjects received single 1600 mg doses of ITMN-191 under both fasted and fed conditions with a 5-day washout period between dosing. For each condition, subjects were sampled within 1 hour before dosing and at 0.25, 0.5, 1, 1.5, 2, 2.5, 3, 4, 6, 8, 12, 18, 24, and 32 hours after dosing. Pharmacokinetic parameter estimates were calculated using non-compartmental methods. Half-life (t1/2) was determined by visual inspection of the log concentration-time plots to choose the terminal phase (minimum of three detectable observations). Using linear regression of the chosen terminal phase observations, elimination rate constants were calculated as the negative slope and half-life as the natural log of 2 divided by the elimination rate constant.

With `CC(C)(C)OC(=O)N[C@H]1CCCCC/C=C\[C@@H]2C[C@@]2(C(=O)NS(=O)(=O)C2CC2)NC(=O)[C@@H]2C[C@@H](OC(=O)N3Cc4cccc(F)c4C3)CN2C1=O` [compound 100] the tolerability (all doses) was “well tolerated” and the “exposure when administered with food, compared to without food” value was “higher than anticipated exposure”.
